The source made the active and inactive calls. No rule for the calls is given here.
test system: S. cerevisiae SKN7-toxicity growth rescue, plate reader; test: SKN7 mediated toxicity in Saccharomyces cerevisiae, growth rescue counterscreen, dose confirmation (AID 624258);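 also: growth read after three days of incubation at 30 °C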

Row | SMILES | AC40
1 | O=C(N/N=C(\c1ccccc1)c1cccnc1)c1cccc(F)c1 | 1.12 µM
2 | NNC(=O)c1ccc2nc(-c3ccc(Br)cc3)cn2c1 | 13.1 µM
3 | CC(C)(C)c1cc(CCC(=O)NNC(=S)NC(=O)c2ccccc2)cc(C(C)(C)C)c1O | 6.31 µM
4 | Cc1cc([N+](=O)[O-])c(NC2CCCCC2)c([N+](=O)[O-])c1 | 10.1 µM
5 | COc1ccc2c(c1)c1nnc(SC)nc1n2C | 2 µM
6 | Cc1ccc(CNC(=O)C2COc3ccccc3O2)cc1 (stereo unspecified) | 17.7 µM
7 | O=C(CSc1ccc(-c2ccccn2)nn1)NCc1ccccc1 | 7.08 µM
8 | O=[N+]([O-])c1ccc(-c2nc(-c3cccs3)c(-c3cccs3)[nH]2)cc1 | 4.72 µM
9 | CCCCCCCCNC(=O)/C(C#N)=C/c1ccccc1[N+](=O)[O-] | 3.17 µM
10 | COc1ccc(C(=O)NC(=S)NNC(=O)CCc2ccccc2)cc1 | 1.42 µM
11 | O=c1[nH]c(=O)n(C2OC(CO)C(O)C2O)cc1F (stereo unspecified) | 12.9 µM
12 | O=C(/C=C/c1ccccc1)c1cc(Br)ccc(=O)c1O | 2.08 µM
13 | O=C(Oc1ccc(N(C(=O)c2ccncc2)S(=O)(=O)c2ccc(Cl)cc2)cc1)c1ccncc1 | 0.978 µM
14 | Cc1cccc(NS(=O)(=O)c2ccc(-c3cnc(C4CC4)o3)cc2)c1C | 12.6 µM
15 | Cc1ccccc1OCC(O)Cn1c2ccccc2c2ccccc21 (stereo unspecified) | 3.61 µM
16 | Cc1ccccc1NC(=O)CSc1ccc(-c2ccccn2)nn1 | 7.17 µM
17 | C[C@@]12C(=O)Nc3ccc(F)cc3C(=O)N1[C@H]1c3ccccc3OC[C@@H]1[C@@H]2c1ccccc1 | 11.5 µM
18 | COc1ccccc1CNC(=O)CSc1ccc(-c2ccccn2)nn1 | 10.3 µM
19 | CC(/C=N/n1c(COc2ccccc2)n[nH]c1=S)=C\c1ccccc1 | > 19.5 µM (inactive)
20 | COc1ccc(-c2cc(C(=O)NNC(=S)NC(=O)c3c(-c4ccccc4)noc3C)[nH]n2)cc1 | 2.31 µM
21 | COC(=O)c1ccc(N2C(=O)CC(N(C)CCc3ccc(OC)c(OC)c3)C2=O)cc1 (stereo unspecified) | 8.6 µM

Row | SMILES | AC40
22 | O=S(=O)(CCSc1nc2ccccc2s1)c1nc2ccccc2s1 | 2.43 µM
23 | COc1cc(OC)cc(N2C(=O)CC(N3CCC(C(=O)N4CCCCC4)CC3)C2=O)c1 (stereo unspecified) | 13.7 µM
24 | O=C(NC1=CC(=O)c2ccccc2C1=O)c1ccccc1 | 3.18 µM
25 | CC(C)(c1cc(Br)c(O)c(Br)c1)c1cc(Br)c(O)c(Br)c1 | 1.26 µM
26 | N#C/C(=C\c1cccc(Oc2ccccc2)c1)C(=O)N1CCOCC1 | 8.47 µM
27 | COc1cccc(/C=N/NC(=O)c2cc(-c3cccn3C)n[nH]2)c1O | 5.62 µM
28 | Cc1[nH]n(-c2ccccc2)c(=O)c1/C=N/Nc1nncc(-c2ccccc2)n1 | 1.11 µM
29 | Cc1cc(C)c(C(N)=O)c(Nc2cccc3ccccc23)n1 | > 19.5 µM (inactive)
30 | O=NN(CCc1ccncc1)c1ccc(OCc2ccccc2)cc1 | 2.98 µM
31 | N=c1c2c(-c3ccccc3)c(-c3ccccc3)n(Cc3ccco3)c2ncn1CCCn1ccnc1 | 2.92 µM
32 | COc1cc2c(c(OC)c1OC)-c1ccc(O)c(=O)cc1[C@@H](N)CC2 | 0.936 µM
33 | Cc1[nH]n(-c2cccc3ccccc23)c(=O)c1/C=N/NC(=O)c1cccc([N+](=O)[O-])c1 | 0.738 µM
34 | O=[N+]([O-])c1cc(Cl)cc(/C=N/NC(=S)Nc2ccc(S(=O)(=O)N3CCOCC3)cc2)c1O | 2.22 µM
35 | Cc1cc(-c2ccccc2)n(-c2cc(N/N=C/c3ccccc3O)ncn2)n1 | > 19.5 µM (inactive)
36 | CCOC(=O)CSC1=NC(=O)/C(=C\c2ccc(Cl)cc2)S1 | 6.09 µM
37 | Cc1ccnc(N2C(=O)c3cccc4c([N+](=O)[O-])ccc(c34)C2=O)c1 | 0.166 µM
38 | Cc1cc(Cl)ccc1OCC(=O)NCCCCc1ccccc1 | 8.43 µM
39 | O=C(CSc1ccc(-c2ccccn2)nn1)NC1CCCC1 | 7.77 µM
40 | CCc1cc(C(N)=O)c(NC(=O)c2ccc(OC)cc2)s1 | 6.02 µM
41 | O=C1C(=C(I)I)c2ccccc2-c2ccccc21 | 2.07 µM
42 | CCC(Oc1ccccc1)C(=O)Nc1ncc([N+](=O)[O-])s1 (stereo unspecified) | 0.668 µM

Row | SMILES | AC40
43 | N/C(Cc1ccc(Cl)cc1Cl)=N\OC(=O)c1ccc(Br)o1 | 0.746 µM
44 | Cc1cccc(N2CCN(C(=O)C3CCCCC3)CC2)c1C | 19.3 µM
45 | CCc1oc2ccccc2c1C(=O)c1cc(Br)c(O)c(Br)c1 | 0.912 µM
46 | CCCOc1ccc(N2C(=O)CC(N3CCC(C(=O)OCC)CC3)C2=O)cc1 (stereo unspecified) | 6.17 µM
47 | CSc1cccc(NC(=O)/C=C/c2cccc(Cl)c2)c1 | 4.52 µM
48 | N#C/C(=C\c1cccnc1)c1ccc(Br)cc1 | 15.9 µM
49 | Cc1ccc(NC(=O)CN(C)C(=O)c2cccnc2Nc2cccc(C(F)(F)F)c2)cc1 | 5.69 µM
50 | S=C(NCCCc1ccccc1)Nc1ccccc1Cl | 5.29 µM
51 | O=C(Nc1cccnc1)c1ccc2ccccc2c1O | 0.908 µM
52 | O=C(CSc1nc2ccccc2s1)N/N=C/c1cc([N+](=O)[O-])ccc1O | 3.97 µM
53 | CCCC(=O)NC(c1ccccc1OC)c1ccc2cccnc2c1O (stereo unspecified) | 1.2 µM
54 | Oc1ccccc1N=Cc1ccc[nH]1 | > 0.75 µM (inactive)
55 | Cc1cc(C(=O)N/N=C/c2ccc(O)c(O)c2O)c(C)n1-c1ccccc1 | 1.36 µM
56 | COc1cc(/C=C2\SC(=S)N(NS(=O)(=O)c3ccc(C)cc3)C2=O)ccc1O | 1.64 µM
57 | S=c1[nH]nc(-c2ccco2)n1/N=C/C(Cl)=C/c1ccccc1 | 10.8 µM
58 | O=c1c(-c2cccc3ccccc23)[n+]([O-])c2ccccc2n1O | 12.6 µM
59 | CN1CCN(C2CCN(c3ccc(Nc4nnc(Cl)c(Nc5ccccc5S(C)(=O)=O)n4)c(OC(CF)CF)c3)CC2)CC1 | 15.1 µM
60 | Cc1ccc(CN=Cc2[nH]c3ccc(Br)c(Cl)c3c2O)cc1 | 9.03 µM
61 | Cc1cc(C(=O)N/N=C/c2cc(Br)cc([N+](=O)[O-])c2O)c2ccccc2n1 | 1.27 µM
62 | Cc1cccc(C)c1NC(=O)c1nc(S(=O)(=O)Cc2ccccc2)ncc1Cl | 7.57 µM
63 | COc1ccc2c(n1)Sc1nc3ccccc3nc1N2 | 0.649 µM

Row | SMILES | AC40
64 | O=c1c(=Nc2ccccc2O)c(=O)c2ccccc12 | 1.06 µM
65 | Cc1nnc(N/N=C/c2cccc(OCc3ccc(Cl)c(Cl)c3)c2)n1N | 3.28 µM
66 | O=c1c2c(-c3ccc(Cl)cc3)csc2ncn1/N=C/c1cccc([N+](=O)[O-])c1O | 1.23 µM
67 | O=C(NCC1CC1(Cl)Cl)Nc1ccc(Cl)c(Cl)c1 (stereo unspecified) | > 6.8 µM (inactive)
68 | CC(C)(C)C(=O)C(Oc1ccc(Cl)cc1)n1cncn1 (stereo unspecified) | 2.02 µM
69 | Cc1nn(-c2nnc(NC3CCCCC3)nn2)c(C)c1Br | 6.48 µM
70 | Fc1ccc(CCNC(=S)Nc2ccc(F)c(Cl)c2)cc1 | 3.7 µM
71 | CCCC1CCC(c2ccc(/C(N)=N/O)cc2)CC1 (stereo unspecified) | 0.476 µM
72 | O=[N+]([O-])c1cc(C(F)(F)F)ccc1NCCc1c[nH]c2ccc(O)cc12 | 1.11 µM
73 | CNC1=C(N(C(C)=O)c2ccc(Br)cc2)C(=O)c2ccccc2C1=O | 15.8 µM
74 | CCS(=O)(=O)c1ccc(N=Nc2ccc(O)c3ncccc23)c(OC)c1 | 3.56 µM
75 | CC1CCc2sc(-c3n[nH]c(=S)o3)cc2C1 (stereo unspecified) | 0.663 µM
76 | Cc1cccc(C(=O)NC(=S)NNC(=O)Cc2ccccc2)c1 | 1.22 µM
77 | Cc1ccc(N(CN2C(=O)c3ccccc3C2=O)C(=O)c2ccc([N+](=O)[O-])cc2[N+](=O)[O-])cc1 | 7.16 µM
78 | O=S(=O)(Nc1nc2ccccc2nc1N1CCN(c2ccccn2)CC1)c1ccc(Cl)cc1 | 0.818 µM
79 | CC(C)c1cc(-c2cc(C(=O)NCc3ccccc3)on2)nc(NCC2CC2)n1 | 7.9 µM
80 | Clc1cccc(CON/C=N/c2ncnc3sccc23)c1 | 3.8 µM
81 | CC(=O)c1c(C)oc2c1C(=O)c1ccccc1C2=O | 1.92 µM
